Experimental data as given in patent US20240277585A1, “COMPOSITION OF LIPID NANOPARTICLE CONTAINING VITIS VINIFERA EXTRACT, COSMETIC USES OF A COMPOSITION OF LIPID NANOPARTICLE CONTAINING VITIS VINIFERA EXTRACT, ANTIOXIDANT DERMOCOSMETIC PRODUCT AND FOR PREVENTING SKIN AGING AND SKIN CARE METHOD” (ACHÉ LABORATÓRIOS FARMACÊUTICOS S.A., priority 2021, published 2024).

Columns and labels:
Format in all cases: biochemical
elastase = experiment: Activity of the elastase enzyme
Procedure: (§1) The anti-aging effect of the composition of the first aspect was determined by the methods that measure the activity of the elastase enzyme and the activity of the metalloproteases (MMP) enzyme.

MMP 3 = MMP 3 (Homo sapiens, UniProt P08254); experiment: Activity of the metalloproteases (MMP) enzyme
MMP 3, sequence (P08254 100-477): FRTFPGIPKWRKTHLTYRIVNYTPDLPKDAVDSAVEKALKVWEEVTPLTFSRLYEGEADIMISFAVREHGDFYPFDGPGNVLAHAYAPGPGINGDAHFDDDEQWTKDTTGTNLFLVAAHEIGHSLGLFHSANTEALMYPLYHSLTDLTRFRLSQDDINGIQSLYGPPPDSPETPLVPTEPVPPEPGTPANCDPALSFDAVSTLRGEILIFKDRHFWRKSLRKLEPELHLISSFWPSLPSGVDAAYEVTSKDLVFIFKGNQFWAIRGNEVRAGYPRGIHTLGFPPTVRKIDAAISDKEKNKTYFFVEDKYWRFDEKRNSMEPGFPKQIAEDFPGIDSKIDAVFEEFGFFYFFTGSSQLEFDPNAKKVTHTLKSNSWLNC
Procedure: as §1

MMP 12 = MMP 12 (Homo sapiens, UniProt P39900); experiment: Activity of the metalloproteases (MMP) enzyme
MMP 12, sequence (P39900 106-470): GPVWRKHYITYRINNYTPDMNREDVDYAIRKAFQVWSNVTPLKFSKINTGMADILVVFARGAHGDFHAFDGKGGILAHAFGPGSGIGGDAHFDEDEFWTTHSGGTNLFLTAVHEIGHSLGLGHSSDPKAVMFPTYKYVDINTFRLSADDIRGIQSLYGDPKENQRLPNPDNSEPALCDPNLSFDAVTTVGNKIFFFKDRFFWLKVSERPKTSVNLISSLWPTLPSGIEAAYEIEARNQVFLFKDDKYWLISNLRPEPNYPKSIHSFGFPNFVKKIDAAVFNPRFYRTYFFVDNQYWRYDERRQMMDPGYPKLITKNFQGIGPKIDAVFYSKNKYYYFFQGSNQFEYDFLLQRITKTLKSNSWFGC
Procedure: as §1

MMP 1 = target: T1, MMP 1 (Homo sapiens, UniProt P03956); experiment: Activity of the metalloproteases (MMP) enzyme
T1 sequence (P03956 100-469): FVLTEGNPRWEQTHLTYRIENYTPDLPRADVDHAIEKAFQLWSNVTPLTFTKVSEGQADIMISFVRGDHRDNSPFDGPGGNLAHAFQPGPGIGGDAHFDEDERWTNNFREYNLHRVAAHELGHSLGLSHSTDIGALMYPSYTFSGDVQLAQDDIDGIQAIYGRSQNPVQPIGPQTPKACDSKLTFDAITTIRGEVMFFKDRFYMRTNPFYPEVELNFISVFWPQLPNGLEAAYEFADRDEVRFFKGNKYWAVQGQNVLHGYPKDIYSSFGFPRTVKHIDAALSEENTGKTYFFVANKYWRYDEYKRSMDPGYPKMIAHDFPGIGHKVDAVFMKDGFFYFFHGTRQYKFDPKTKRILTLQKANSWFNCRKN
Procedure: as §1

Row | Compound | Inhibition of the activity of elastase (elastase) | Inhibition of the activity of MMP 3 (MMP 3) | Inhibition of the activity of MMP 12 (MMP 12) | Inhibition of the activity of MMP 1 (MMP 1)
1 | Vitamin E | do not present such result | do not present this result | do not present this result | do not present this result
2 | O=C1O[C@H]([C@@H](O)CO)C(O)=C1O [Vitamin C] | do not present such result | do not present this result | do not present this result | do not present this result
